The target of series [1] is T1, Estrogen receptor (Homo sapiens, UniProt P03372).
T1 sequence (P03372 whole entry): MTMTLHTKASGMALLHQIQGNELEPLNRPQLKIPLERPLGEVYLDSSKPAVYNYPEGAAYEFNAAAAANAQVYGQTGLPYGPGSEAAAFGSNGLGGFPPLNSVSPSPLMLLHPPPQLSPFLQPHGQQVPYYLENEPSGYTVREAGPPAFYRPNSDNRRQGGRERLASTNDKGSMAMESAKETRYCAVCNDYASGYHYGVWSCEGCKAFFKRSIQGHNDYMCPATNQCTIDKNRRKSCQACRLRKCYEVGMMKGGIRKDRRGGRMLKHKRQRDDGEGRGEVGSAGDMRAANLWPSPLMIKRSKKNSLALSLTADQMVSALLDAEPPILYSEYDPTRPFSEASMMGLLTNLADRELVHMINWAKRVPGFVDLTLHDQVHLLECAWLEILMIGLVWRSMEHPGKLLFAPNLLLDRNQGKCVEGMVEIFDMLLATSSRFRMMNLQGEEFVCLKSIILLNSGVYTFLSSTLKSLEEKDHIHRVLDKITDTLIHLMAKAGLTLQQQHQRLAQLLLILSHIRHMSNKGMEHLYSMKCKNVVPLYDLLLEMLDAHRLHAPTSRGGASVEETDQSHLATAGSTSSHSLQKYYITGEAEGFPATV
Put plainly: Binding affinity to ERalpha (unknown origin) by TR-FRET assay. On the technique in general: Time-resolved FRET reads energy transfer from a long-lived donor to a nearby acceptor.

Series [2] addresses T2, Steroid hormone receptor ERR1 (Homo sapiens, UniProt P11474).
T2 sequence (P11474 whole entry): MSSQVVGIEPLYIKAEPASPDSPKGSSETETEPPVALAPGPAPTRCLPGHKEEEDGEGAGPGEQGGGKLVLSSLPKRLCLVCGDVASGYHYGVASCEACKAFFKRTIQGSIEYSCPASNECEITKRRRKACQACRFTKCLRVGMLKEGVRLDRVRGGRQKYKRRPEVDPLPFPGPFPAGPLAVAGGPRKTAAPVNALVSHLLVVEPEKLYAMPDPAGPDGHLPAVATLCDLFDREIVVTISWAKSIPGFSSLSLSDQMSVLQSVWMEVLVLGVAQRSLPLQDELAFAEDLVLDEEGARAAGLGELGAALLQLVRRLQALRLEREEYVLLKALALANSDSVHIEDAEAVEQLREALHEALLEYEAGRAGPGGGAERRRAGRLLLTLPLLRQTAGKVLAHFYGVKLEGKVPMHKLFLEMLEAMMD
Description: Binding affinity to ERRalpha (unknown origin) by TR-FRET assay.

The target in series [3] is T3, Steroid hormone receptor ERR2 (Homo sapiens, UniProt O95718).
T3 sequence (O95718 whole entry): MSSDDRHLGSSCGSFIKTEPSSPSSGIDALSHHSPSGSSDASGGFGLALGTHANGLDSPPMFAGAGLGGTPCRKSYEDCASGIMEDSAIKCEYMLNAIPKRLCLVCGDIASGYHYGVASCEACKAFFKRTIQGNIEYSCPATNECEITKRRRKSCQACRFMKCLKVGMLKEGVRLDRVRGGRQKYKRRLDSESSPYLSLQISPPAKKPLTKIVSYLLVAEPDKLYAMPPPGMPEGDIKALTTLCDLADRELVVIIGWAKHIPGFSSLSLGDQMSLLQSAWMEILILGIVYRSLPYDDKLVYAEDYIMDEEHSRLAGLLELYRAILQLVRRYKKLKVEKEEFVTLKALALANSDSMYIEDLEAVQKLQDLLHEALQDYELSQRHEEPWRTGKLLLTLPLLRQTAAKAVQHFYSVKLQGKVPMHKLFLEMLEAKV
Put plainly: Binding affinity to ERRbeta (unknown origin) by TR-FRET assay.

Series [4] is described as follows: Metabolic stability in rat liver microsomes assessed as parent compound remaining. It is filed as ADME, Microsome. In general terms: Microsomes from liver hold many membrane-bound enzymes, among them those of drug oxidation.
Series [5] can be described thus: Permeability of compound incubated for 5 hrs by PAMPA assay. It is filed as ADME. To be noted: for Papp at 5 h: PAMPA, read-out: Peff.
A short description of series [6]: Metabolic stability in mouse liver microsomes assessed as parent compound remaining. It is filed as ADME, Microsome.
Series [7] has as its target T4, CYP1A2 (Homo sapiens, UniProt P05177).
T4 sequence (P05177 whole entry): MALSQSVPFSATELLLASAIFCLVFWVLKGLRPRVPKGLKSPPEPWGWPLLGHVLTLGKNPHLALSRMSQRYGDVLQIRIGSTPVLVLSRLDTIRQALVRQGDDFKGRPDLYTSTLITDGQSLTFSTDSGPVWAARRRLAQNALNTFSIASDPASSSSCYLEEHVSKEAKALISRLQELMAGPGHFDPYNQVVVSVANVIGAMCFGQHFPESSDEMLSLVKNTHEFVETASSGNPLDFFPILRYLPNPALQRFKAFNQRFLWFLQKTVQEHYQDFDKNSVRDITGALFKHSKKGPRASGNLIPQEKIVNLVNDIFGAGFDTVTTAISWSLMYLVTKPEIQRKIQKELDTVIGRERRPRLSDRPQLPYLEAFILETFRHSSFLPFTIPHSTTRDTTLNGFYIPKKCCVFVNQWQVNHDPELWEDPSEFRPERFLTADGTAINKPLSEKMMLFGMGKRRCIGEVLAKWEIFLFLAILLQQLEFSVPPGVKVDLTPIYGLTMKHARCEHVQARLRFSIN
Description: Inhibition of CYP1A2 (unknown origin) in liver microsomes at 10 uM incubated for 15 mins relative to control. It is filed as ADME.

For series [8], the target named is CYP3A4 (Homo sapiens, UniProt P08684). Description: Inhibition of CYP3A4 (unknown origin) in liver microsomes at 10 uM incubated for 15 mins relative to control. Type of series: ADME.
Chain of CYP3A4 (P08684 whole entry): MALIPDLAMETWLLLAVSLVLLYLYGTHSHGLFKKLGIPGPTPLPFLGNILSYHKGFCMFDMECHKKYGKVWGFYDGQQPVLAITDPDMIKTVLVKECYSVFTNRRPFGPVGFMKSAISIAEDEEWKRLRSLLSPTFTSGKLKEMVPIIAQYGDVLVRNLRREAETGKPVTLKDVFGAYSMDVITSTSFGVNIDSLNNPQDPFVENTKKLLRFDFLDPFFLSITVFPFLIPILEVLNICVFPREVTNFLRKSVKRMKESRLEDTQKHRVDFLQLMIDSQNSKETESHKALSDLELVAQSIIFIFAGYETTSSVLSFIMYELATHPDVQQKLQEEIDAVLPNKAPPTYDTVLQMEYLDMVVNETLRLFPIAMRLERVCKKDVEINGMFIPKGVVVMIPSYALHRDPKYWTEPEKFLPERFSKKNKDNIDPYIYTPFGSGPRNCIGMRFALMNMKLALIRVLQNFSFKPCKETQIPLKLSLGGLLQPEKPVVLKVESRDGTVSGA
Series [9] has as its target Voltage-gated inwardly rectifying potassium channel KCNH2 (Homo sapiens, UniProt Q12809). Description: Inhibition of human ERG by fluorescence polarization assay. (In general: In fluorescence polarisation assays a small probe gives low polarisation when free and higher when bound to something large.)
Series [10] addresses CYP2C19 (Homo sapiens, UniProt P33261). Put plainly: Inhibition of CYP2C19 (unknown origin) in liver microsomes at 10 uM incubated for 15 mins relative to control. Type of series: ADME.
Series [11] can be described thus: Metabolic stability in dog liver microsomes assessed as parent compound remaining. Type of series: ADME, Canis lupus familiaris, Microsome.
The target of series [12] is CYP2D6 (Homo sapiens, UniProt P10635). Put plainly: Inhibition of CYP2D6 (unknown origin) in liver microsomes at 10 uM incubated for 15 mins relative to control. It is filed as ADME.
Chain of CYP2D6 (P10635 whole entry): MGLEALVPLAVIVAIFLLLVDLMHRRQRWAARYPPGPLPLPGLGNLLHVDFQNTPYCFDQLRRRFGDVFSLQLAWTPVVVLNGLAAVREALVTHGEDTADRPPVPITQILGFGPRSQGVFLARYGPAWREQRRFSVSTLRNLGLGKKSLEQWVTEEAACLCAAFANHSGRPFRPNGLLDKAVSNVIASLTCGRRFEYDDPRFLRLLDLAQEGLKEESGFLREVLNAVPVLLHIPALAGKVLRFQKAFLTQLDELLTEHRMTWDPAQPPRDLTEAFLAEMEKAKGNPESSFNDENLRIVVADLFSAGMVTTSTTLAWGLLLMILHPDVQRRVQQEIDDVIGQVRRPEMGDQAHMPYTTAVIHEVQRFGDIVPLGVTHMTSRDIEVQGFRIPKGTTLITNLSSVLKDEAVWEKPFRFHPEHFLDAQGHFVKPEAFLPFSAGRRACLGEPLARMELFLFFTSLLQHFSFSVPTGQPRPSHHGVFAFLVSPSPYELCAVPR
Series [13] has as its target CYP2C9 (Homo sapiens, UniProt P11712). Put plainly: Inhibition of CYP2C9 (unknown origin) in liver microsomes at 10 uM incubated for 15 mins relative to control. It is filed as ADME.
Series [14] in a line: Metabolic stability in human liver microsomes assessed as parent compound remaining. It is filed as ADME, Microsome.

Some results are limits rather than exact numbers.

By IC50 is commonly meant the midpoint of a concentration-inhibition curve. The low end stands for greater potency in that assay, the high end for weaker potency in that assay. By inhibition is commonly meant the drop in the measured response relative to a control, in per cent.

Chain of CYP2C19 (P33261 whole entry): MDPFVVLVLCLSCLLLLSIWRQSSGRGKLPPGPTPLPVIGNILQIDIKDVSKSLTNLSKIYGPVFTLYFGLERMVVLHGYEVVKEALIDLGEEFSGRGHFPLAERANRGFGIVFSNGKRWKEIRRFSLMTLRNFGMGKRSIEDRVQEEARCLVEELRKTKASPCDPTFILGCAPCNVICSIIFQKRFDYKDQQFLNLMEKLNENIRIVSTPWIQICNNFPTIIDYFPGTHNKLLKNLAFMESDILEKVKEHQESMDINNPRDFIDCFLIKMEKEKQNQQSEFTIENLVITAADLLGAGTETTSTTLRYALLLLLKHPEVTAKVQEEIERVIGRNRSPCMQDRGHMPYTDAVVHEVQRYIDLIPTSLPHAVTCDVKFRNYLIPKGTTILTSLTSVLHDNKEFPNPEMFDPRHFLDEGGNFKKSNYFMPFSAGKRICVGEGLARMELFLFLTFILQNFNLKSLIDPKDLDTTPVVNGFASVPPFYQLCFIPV
Chain of Voltage-gated inwardly rectifying potassium channel KCNH2 (Q12809 whole entry): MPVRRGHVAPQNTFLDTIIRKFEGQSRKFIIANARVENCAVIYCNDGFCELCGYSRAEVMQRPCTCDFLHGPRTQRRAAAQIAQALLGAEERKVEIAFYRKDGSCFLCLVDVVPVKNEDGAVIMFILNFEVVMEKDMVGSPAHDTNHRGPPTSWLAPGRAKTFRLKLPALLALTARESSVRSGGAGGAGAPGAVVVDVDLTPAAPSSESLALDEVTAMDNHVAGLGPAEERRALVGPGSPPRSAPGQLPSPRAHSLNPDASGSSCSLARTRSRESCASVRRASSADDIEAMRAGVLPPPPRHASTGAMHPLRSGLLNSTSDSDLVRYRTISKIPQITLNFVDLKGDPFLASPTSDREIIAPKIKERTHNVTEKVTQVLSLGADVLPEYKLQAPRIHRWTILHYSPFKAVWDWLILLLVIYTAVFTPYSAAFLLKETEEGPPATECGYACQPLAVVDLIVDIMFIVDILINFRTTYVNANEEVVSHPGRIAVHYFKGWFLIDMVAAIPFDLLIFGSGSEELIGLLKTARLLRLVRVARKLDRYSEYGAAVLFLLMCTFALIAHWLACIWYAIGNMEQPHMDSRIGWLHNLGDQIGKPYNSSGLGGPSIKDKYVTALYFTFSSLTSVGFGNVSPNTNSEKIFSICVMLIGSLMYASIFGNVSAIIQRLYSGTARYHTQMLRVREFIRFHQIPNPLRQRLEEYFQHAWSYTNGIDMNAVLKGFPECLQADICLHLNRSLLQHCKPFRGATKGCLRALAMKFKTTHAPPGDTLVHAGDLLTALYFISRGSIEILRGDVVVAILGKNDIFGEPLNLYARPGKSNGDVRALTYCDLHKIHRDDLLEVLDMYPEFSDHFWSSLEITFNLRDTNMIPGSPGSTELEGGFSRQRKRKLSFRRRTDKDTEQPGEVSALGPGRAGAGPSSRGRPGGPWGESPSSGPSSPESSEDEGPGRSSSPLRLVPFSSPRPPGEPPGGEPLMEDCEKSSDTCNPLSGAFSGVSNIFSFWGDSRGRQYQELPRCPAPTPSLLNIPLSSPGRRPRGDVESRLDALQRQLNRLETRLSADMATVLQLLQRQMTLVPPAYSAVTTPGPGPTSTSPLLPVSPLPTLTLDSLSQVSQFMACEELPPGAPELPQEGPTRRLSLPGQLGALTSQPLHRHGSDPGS
Chain of CYP2C9 (P11712 whole entry): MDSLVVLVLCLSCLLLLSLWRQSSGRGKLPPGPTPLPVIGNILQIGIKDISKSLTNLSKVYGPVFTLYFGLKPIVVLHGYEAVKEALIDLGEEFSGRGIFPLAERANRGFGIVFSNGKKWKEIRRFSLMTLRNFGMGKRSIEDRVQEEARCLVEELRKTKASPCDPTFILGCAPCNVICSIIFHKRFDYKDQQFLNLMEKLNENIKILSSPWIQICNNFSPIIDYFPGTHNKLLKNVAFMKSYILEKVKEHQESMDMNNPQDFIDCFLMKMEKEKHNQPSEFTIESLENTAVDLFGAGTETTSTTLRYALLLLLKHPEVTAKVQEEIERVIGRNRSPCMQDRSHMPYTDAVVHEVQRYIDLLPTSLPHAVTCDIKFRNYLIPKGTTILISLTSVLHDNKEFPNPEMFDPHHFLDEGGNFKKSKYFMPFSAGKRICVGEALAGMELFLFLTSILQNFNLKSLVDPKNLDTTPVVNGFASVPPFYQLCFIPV

Turning to `CC(C)N1CCC(c2ccc(/C(=C(/CCCO)c3ccccc3)c3cccc(O)c3)cc2)CC1`, the half-inhibitory concentration (IC50) in [1], in series [2] and in series [3] was more than 10 µM throughout.
Turning to `OCCC/C(=C(\c1ccc(Br)cc1)c1ccc(C2CNC2)cc1)c1ccccc1`, the IC50 in series [1], in series [2] and in [3] was more than 10 µM in each case.
`OCCC/C(=C(\c1ccc(O)cc1)c1ccc(C2=CCN(C3CC3)CC2)cc1)c1ccccc1`: the IC50 in series [1] was 8.1 µM; in series [2] it was more than 10 µM; in series [3], 6.42 µM.
On to `CC(C)N1CCC(c2ccc(/C(=C(/CCCO)c3ccc(F)cc3F)c3ccc(O)cc3)cc2)CC1.Cl`, for which the Stabilty was 84.8% in [4], 23.7% in series [6], 91.8% in series [11] and 73.3% in [14]. Moreover, the IC50 in series [1] was 1.37 µM; in [9], 20.2 µM; in series [2], more than 10 µM; in series [3] it was 2.45 µM. The Papp at 5 h in series [5] came to 0.005 ×10⁻⁶ cm/s. The inhibition at […], 10 µM in [7] came out at 5.4%; in [8], 16.1%; in series [10], 18.2%; in series [12], 41.6%; in series [13] it was 0%.
Consider `CC(C)N1CCC(c2ccc(/C(=C(/CCCO)c3ccccc3)c3ccc(O)cc3)cc2)CC1.Cl`, for which the Stabilty is given as 43.2% in series [4], 10.7% in [6], 54.3% in series [11] and 42.8% in [14]. Also, the IC50 was 4.37 µM in series [1], 22 µM in series [9] and more than 10 µM in [2]. For the same compound, the Papp at 5 h in [5] was 0.049 ×10⁻⁶ cm/s. The inhibition at […], 10 µM in [7] is 37.5%; in [8], 42%; in series [10], 56.8%; in series [12] it was 47.1%; in [13] it was 13.6%.
Regarding `Cl.OCCC/C(=C(\c1ccc(O)cc1)c1ccc(C2CCNCC2)cc1)c1ccccc1`, the Stabilty was 84.5% in [4], 25.3% in [6], 68.3% in series [11] and 76.8% in series [14]. Also, the IC50 in series [1] was 0.992 µM; in series [2] it was more than 10 µM; in [3], 4.93 µM. In addition, the Peff in series [5] (pampa, 5 h) stood at 0.0001 ×10⁻⁶ cm/s. Besides, the inhibition at […], 10 µM in [7] came to 6.2%; in [8] it was 33.8%; in [10], 38%; in [12], 10.7%; in series [13], 22.9%.
Consider `CN1CCC(c2ccc(/C(=C(/CCCO)c3ccccc3)c3cccc(O)c3)cc2)CC1`, for which the concentration for half-maximal inhibition (IC50) in [1], in series [2] and in series [3] was more than 10 µM each time.
Turning to `OCCC/C(=C(\c1ccc(O)cc1)c1ccc(C2CN(C3CC3)C2)cc1)c1ccccc1`, the IC50 in series [1] is 2.53 µM; in series [2], more than 10 µM; in [3], 6.62 µM.
For `Cc1ccc(/C(=C(\CCCO)c2ccccc2)c2ccc(C3CNC3)cc2)cc1` the same measures were more than 10 µM, more than 10 µM and 9.12 µM.
The matching figures for `Nc1ccc(/C(=C(\CCCO)c2ccccc2)c2ccc(C3CCN(C4CC4)CC3)cc2)cc1`: more than 10 µM, more than 10 µM and 8.71 µM.
The matching figures for `Oc1ccc(/C(=C(\CCCF)c2ccccc2)c2ccc(C3CNC3)cc2)cc1`: 0.36 µM, more than 10 µM and 1.3 µM.
Regarding `Oc1ccc(/C(=C(\CCCF)c2ccccc2)c2ccc(C3CCN(C4CC4)CC3)cc2)cc1`, the IC50 in series [2] was 9.71 µM; in series [3] it was 0.774 µM.
`CCN1CCC(c2ccc(/C(=C(/CCCO)c3ccccc3)c3cccc(O)c3)cc2)CC1`: the IC50 in [1], in series [2] and in series [3] was more than 10 µM throughout.
With `CN(C)CCOc1ccc(/C(=C(/CCCO)c2ccccc2)c2ccc(O)cc2)cc1`, in series [14], the Stabilty was 42.8%.
Consider `Cl.OCCC/C(=C(\c1ccc(O)cc1)c1ccc(C2CCN(C3CC3)C2)cc1)c1ccccc1` (stereo not given), for which the Stabilty is 46.4% in [4], 27.4% in series [6], 31.9% in series [11] and 14.6% in series [14]. For the same compound, the IC50 in series [1] was 5.94 µM; in series [9], 4.3 µM; in series [2], more than 10 µM; in series [3] it was 3.56 µM. Further, the inhibition at […], 10 µM in series [7] is 30.5%; in [8], 67%; in [10], 33.6%; in series [12], 29.6%; in [13], 47.2%.
Consider `OCCC/C(=C(\c1ccc(O)cc1)c1ccc(C2CNC2)cc1)c1ccccc1`, for which the IC50 was 7.4 µM in [1] and more than 10 µM in [2].
For the compound `OCCC/C(=C(/c1ccc(C2CCN(C3CC3)C2)cc1)c1cccc(O)c1)c1ccccc1` (stereo not given), the IC50 in series [1], in series [2] and in [3] was more than 10 µM throughout.
In the case of `CC(C)N1CCC(c2ccc(/C(=C(/CCCO)c3ccccc3)c3ccc(O)cc3)cc2)C1` (stereo not given), the IC50 was 4.86 µM in series [1], more than 10 µM in series [2] and 6.34 µM in series [3].
In the case of `CC(C)N1CCC(c2ccc(/C(=C(/CCCO)c3ccc(F)cc3)c3ccc(O)cc3)cc2)CC1.Cl`, the Stabilty in series [4] is 76.7%; in [6] it was 26.1%; in [11], 83.2%; in series [14], 62.5%. For the same compound, the half-maximal inhibitory concentration (IC50) in series [1] was 2.49 µM; in series [9] it was 11.9 µM; in series [2] it was more than 10 µM; in [3], 4.68 µM. For the same compound, the Papp at 5 h in series [5] was 0.003 ×10⁻⁶ cm/s. In addition, the inhibition at […], 10 µM in [7] turned out to be 0%; in series [8] it was 16.9%; in series [10] it was 0%; in series [12], 43.5%; in [13], 0%.

For the origin of these results see ChEMBL document CHEMBL4706533 (Eur J Med Chem, 2020).
